Active and inactive are the calls of the source. No rule for the calls is given here.
Molecular target: T1, Exodeoxyribonuclease V (Escherichia coli (strain K12), UniProt P04993+P07648+P08394)
T1 sequence (P04993 whole entry): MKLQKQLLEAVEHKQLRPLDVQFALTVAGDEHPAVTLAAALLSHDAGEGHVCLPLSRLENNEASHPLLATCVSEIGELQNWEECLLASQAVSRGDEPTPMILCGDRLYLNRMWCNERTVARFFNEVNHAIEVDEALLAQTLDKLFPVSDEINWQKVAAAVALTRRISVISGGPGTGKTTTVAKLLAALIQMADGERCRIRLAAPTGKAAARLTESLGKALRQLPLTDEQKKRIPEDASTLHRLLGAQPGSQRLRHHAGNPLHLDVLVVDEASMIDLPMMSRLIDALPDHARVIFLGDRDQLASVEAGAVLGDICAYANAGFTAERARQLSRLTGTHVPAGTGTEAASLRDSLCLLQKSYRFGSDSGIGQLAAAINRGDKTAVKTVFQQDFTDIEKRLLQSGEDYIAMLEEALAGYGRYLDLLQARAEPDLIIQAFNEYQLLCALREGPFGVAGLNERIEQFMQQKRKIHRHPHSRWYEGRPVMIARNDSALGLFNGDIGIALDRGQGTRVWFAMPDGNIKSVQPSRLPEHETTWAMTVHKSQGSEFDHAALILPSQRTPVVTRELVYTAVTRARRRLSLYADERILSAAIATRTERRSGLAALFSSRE
T1 sequence (P07648 whole entry): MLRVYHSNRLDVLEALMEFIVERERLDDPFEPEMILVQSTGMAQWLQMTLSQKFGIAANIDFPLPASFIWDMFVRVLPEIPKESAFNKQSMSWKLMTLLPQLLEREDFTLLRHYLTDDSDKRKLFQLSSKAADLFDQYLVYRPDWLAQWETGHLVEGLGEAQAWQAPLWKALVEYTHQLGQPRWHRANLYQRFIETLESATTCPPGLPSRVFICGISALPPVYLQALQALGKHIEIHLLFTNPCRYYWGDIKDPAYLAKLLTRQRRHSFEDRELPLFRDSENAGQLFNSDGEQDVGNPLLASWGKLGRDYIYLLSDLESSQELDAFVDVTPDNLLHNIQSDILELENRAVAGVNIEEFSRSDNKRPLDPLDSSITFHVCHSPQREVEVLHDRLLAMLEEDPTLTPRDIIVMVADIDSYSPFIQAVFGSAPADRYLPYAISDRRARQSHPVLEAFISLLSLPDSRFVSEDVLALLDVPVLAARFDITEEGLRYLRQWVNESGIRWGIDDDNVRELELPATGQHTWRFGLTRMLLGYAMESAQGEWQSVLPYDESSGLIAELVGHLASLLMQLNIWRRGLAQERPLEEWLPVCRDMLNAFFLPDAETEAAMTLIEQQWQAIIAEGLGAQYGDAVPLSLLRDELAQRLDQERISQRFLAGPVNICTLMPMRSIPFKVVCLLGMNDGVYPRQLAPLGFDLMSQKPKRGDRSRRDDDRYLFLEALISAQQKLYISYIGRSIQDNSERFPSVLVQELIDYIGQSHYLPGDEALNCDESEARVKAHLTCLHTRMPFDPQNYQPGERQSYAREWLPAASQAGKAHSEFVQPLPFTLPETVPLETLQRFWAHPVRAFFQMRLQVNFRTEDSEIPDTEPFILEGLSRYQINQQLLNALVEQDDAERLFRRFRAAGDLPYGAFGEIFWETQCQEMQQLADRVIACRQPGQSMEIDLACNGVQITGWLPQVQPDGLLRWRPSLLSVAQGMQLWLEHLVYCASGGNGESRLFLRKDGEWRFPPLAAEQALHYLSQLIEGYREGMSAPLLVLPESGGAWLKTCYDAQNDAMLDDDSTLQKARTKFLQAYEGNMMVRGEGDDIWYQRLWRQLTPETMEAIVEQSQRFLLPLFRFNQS
T1 sequence (P08394 whole entry): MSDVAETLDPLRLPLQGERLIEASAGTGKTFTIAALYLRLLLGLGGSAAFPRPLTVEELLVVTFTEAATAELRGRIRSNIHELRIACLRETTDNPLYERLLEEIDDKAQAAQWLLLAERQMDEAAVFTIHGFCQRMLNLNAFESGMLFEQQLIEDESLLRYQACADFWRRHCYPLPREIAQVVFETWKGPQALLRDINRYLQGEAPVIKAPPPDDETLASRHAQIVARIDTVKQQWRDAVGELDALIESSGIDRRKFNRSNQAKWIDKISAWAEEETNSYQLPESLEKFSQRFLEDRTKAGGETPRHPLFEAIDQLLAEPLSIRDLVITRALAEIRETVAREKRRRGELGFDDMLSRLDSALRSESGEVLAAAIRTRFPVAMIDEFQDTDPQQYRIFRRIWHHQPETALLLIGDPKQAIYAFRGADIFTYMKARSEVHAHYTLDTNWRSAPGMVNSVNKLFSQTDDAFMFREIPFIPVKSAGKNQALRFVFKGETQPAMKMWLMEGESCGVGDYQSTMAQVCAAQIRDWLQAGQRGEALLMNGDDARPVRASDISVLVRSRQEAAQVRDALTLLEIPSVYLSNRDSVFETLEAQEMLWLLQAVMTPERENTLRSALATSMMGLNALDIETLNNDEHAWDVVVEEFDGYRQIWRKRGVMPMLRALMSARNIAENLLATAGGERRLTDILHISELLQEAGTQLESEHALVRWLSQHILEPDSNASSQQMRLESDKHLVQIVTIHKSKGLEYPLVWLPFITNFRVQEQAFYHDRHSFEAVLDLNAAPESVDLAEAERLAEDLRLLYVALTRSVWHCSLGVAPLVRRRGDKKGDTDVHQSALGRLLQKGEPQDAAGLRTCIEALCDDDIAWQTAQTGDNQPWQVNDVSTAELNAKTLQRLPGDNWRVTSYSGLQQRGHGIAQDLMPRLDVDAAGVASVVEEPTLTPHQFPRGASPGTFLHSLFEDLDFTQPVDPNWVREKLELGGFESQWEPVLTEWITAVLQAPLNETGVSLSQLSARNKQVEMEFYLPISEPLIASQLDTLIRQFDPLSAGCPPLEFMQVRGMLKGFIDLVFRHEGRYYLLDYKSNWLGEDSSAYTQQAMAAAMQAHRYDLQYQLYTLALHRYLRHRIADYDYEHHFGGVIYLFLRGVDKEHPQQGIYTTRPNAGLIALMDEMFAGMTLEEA
Assay: E. coli RecBCD inhibitors, dose response, counter-screen for AddAB inhibitor project, absorbance, V66 E. coli, mutant T4 phage (AID 492957)
Type: functional, cell-based, Escherichia coli str. K-12 substr. MG1655

CCCC(=O)NC(c1ccc(C(C)C)cc1)c1ccc2cccnc2c1O (stereo unspecified)
IC50: > 119 µM (inactive)

Source: ChEMBL document CHEMBL1201862, “PubChem BioAssay data set” (2004)
